Measurements reported in US10743535B2, “Insecticide for flight-capable pests” (H&K SOLUTIONS LLC, priority 2017, dated 2020).

Tests used:
[1] = tested on: lanternfly; conditions: in vivo; cited from earlier work
[2] = tested on: bees; conditions: perhaps contributing to the collapse of bee colonies; cited from earlier work
[3] = tested on: spotted lanternflies (lycorma delicatula); test: formulations sprayed on lantern flies to test lethality; assay type: in vivo; conditions: applied by spraying the top of the insect; lethal = the insect dies within 10 minutes
Experimental: The concentration of menthol in the insecticide should be sufficient such that it is lethal to the insect. As used herein, the term “lethal” means that, once applied by spraying the top of the insect, the insect dies within 10 minutes. Those of skill in the art can determine a lethal dose of menthol without undue experimentation. Although higher doses tend to result in a shorter kill time, given the expense of menthol, it is generally preferred to minimize its concentration to achieve a sufficient kill time, i.e., less than 10 minutes and preferably less than 2 minutes, and more preferably less than 1 minute.
The following nonlimiting examples illustrate the effectiveness of the insecticide of the present invention. […] In all cases, the formulations were applied to lantern flies to test the effectiveness of the particular formulation, and, in all cases, the formulations were lethal as defined in this application.
Again, in all cases, the formulations were applied to lantern flies to test the effectiveness of the particular formulation, and, in all cases, the formulation were lethal as defined in this application.

| Structure (SMILES) | shown to be effective in exterminating the lanternfly [1] | time to kill the lanternfly [1] | effect on bees [2] | lethal to lanternfly [3] |
| --- | --- | --- | --- | --- |
| CN/C(=N/CC1CCOC1)N[N+](=O)[O-] (centres unmarked) [Dinotefuran] | effective | hours | detrimental |  |
| CC1(C)C(C=C(Cl)Cl)C1C(=O)OCc1cccc(Oc2ccccc2)c1 (centres unmarked) [Permethrin] | effective |  |  |  |
| CC1CCC(C(C)C)C(O)C1 (centres unmarked) [menthol] |  |  |  | lethal |
